# Laboratory results as given in US12077485B2, “Lipid nanoparticle compositions for delivering circular polynucleotides” (Orna Therapeutics, Inc., priority 2021, dated 2024).
# Key:
# splenic T cells = assay: mOX40L expression in splenic T cells, flow cytometry; type: in vivo, C57BL/6 female mice; settings: 1 mg/kg intravenously, 24 hours, IL:P 5.7
# Protocol: The ionizable lipid: helper lipid: cholesterol: PEG-lipid molar ratio of these LNPs was 50:10:38.5:1.5. C57BL/6 female mice (6-8 weeks, n=4) were dosed at 1 mg/kg intravenously. At 24 hours, the spleen from the mice were collected for flow cytometry analysis, tested for weight loss and measured for serum alanine aminotransferase (ALT) after blood collection. mOX40L expression was measured in splenic T cells.
# [1] = system: splenic immune cells (T cells, myeloid cells, B cells, NK cells); assay: mOX40L expression in splenic immune cells, flow cytometry; type: in vivo, C57BL/6 female mice; settings: 1 mg/kg intravenously, 24 hours, IL:P 5.7, 50:10:38.5:1.5; compared to Lipid 15 of Table 10f
# Protocol: The ionizable lipid: helper lipid: cholesterol: PEG-lipid molar ratio of these LNPs was 50:10:38.5:1.5. Dialysis of the LNPs were performed using PBS. C57BL/6 female mice (6-8 weeks, n=4) were dosed at either LNP comprising Lipid 1 of Table 10e or the Lipid 15 of Table 10f at 1 mg/kg intravenously. At 24 hours, the spleen from the mice were collected for flow cytometry analysis. mOX40L transfection of Lipid 1 of Table 10e and Lipid 15 of Table 10f were compared in T cells, myeloid cells, B cells, and NK cells.
smiles,measurement,setting,value
"CCCCCCCCCCCCC(O)CN(CCCO)CCCCCCCC(=O)OC(CCCCCCCC)CCCCCCCC (centres unmarked) [Lipid 1 of Table 10e, heptadecan-9-yl 8-((3-hydroxypropyl)(2-hydroxytetradecyl)amino)octanoate]",expression of mOX40L in splenic T cells,splenic T cells,resulted in expression of mOX40L in splenic T cells
same,mOX40L transfection in splenic immune cells,[1],comparable or higher levels of mOX40L transfection
